Each structure is given as a SMILES string. Peptide text beside a SMILES is read from it. * marks the point of attachment. Hydrocinnamoyl = O=C(CCc1ccccc1)*

The series can be described thus: in vitro. Particulars: human, hela cells, % viability.
One may read the viability as a read-out of living cells in per cent, often relative to untreated cells. With `O=C(O)c1ccccc1NC(=O)N1CCc2[nH]cnc2C1c1cccc(F)c1` (stereo not drawn) [CBK286824], the viability at 28.5 h, 10 µM turned out to be 93.7%. With `O=C(O)c1nccnc1C(=O)N1CCN(c2ccc(Cl)cc2)CC1` [CBK286826], the viability at 28.5 h, 10 µM came out at 89.4%. Regarding `O=C(O)CC1NC(=O)C(Cc2ccccc2)NC1=O` (stereo not drawn) [CBK286827], the viability at 28.5 h, 10 µM came to 98.1%. Turning to `O=C(O)C1=CC(c2ccccc2)=NS(=O)(=O)N1` [CBK286828], the viability at 28.5 h, 10 µM was determined as 108%.

`Cc1cc(=O)oc2cc(OC(C)C(=O)NCC(=O)O)ccc12` (stereo not drawn) [CBK286829]: the viability at 28.5 h, 10 µM came to 106%.

Regarding `CC1(C)C(C(=O)O)C1C(=O)NCCc1ccc(O)cc1` (stereo not drawn) [CBK286832], the viability at 28.5 h, 10 µM stood at 104%. The same measure for `O=C(CC(CN1CCN(CCN2CCCC2)CC1)C(=O)O)Nc1ccccc1` (stereo not drawn) [CBK286833]: 109%; for `C=C(C)CN1CCN(C(C(=O)O)c2c[nH]c3cc(F)ccc23)CC1` (stereo not drawn) [CBK286835]: 106%; for `N#CC(CC(=O)O)C(Cc1ccccc1)c1ccccc1` (stereo not drawn) [CBK286837]: 107%.

In the case of `O=C(O)CC(Cc1ccccc1)C(=O)Nc1ccc(F)cc1` (stereo not drawn) [CBK286841], the viability at 28.5 h, 10 µM was determined as 96.1%.

`COc1cccc(NC(=O)CC(CN2CCC(O)CC2)C(=O)O)c1` (stereo not drawn) [CBK286842]: the viability at 28.5 h, 10 µM was 93%. For `O=C(O)C1C2CCC(O2)C1C(=O)Nc1cnn(Cc2ccccc2)c1` (stereo not drawn) [CBK286849] the value was 96%. Consider `CC1=CC(C)C(C(=O)O)C(C(=O)Nc2ccccc2)C1` (stereo not drawn) [CBK286851], for which the viability at 28.5 h, 10 µM was determined as 90.4%. Turning to `O=C(CC1(C(=O)O)CCCC1)NC1CCS(=O)(=O)C1` (stereo not drawn) [CBK286855], the viability at 28.5 h, 10 µM came to 92.3%. On to `O=C(O)CCC(=O)N1c2ccccc2CC1c1ccccc1` (stereo not drawn) [CBK286860], for which the viability at 28.5 h, 10 µM was determined as 91.1%. For `Cc1ccc2nc(SCCC(=O)O)cc(C)c2c1` [CBK286861] the value was 90.1%; for `Cc1ccc(C(=O)O)cc1NC(=O)C(=O)NCC(c1ccccc1)N1CCN(C)CC1` (stereo not drawn) [CBK286864], 92.4%; for `O=C(CC(CN1CCN(Cc2ccccn2)CC1)C(=O)O)NCc1ccccc1` (stereo not drawn) [CBK286865], 81.2%. The same measure for `O=C(O)CC1(CNC(=O)Cn2nc(-c3ccccc3)ccc2=O)CCCCC1` [CBK286866]: 84.1%; for `CCn1ncc(CN2CCN(C(=O)c3nn(C)cc3C(=O)O)CC2)c1C` [CBK286870]: 89.3%; for `Cn1c(C(=O)O)cc2cc(Oc3ccccc3)ccc21` [CBK286873]: 86.3%. As for `O=C(O)CNC(=O)CNC(=O)CCc1ccccc1` [CBK286874] (Hydrocinnamoyl-Gly-Gly-OH), the viability at 28.5 h, 10 µM is 87.1%. The same measure for `Cc1nn(-c2ccccc2)c(C)c1CNC(=O)C1C2C=CC(C2)C1C(=O)O` (stereo not drawn) [CBK286877]: 90.4%; for `Cc1nn(C)c(C)c1CN(C)C(=O)CCCC(=O)O` [CBK286879]: 82.8%. For `O=C(O)CCn1c(=O)cc(C(F)F)c2cn(Cc3ccccc3)nc21` [CBK286881], the viability at 28.5 h, 10 µM was determined as 91.3%.

Consider `O=C(O)COCc1cc(-c2ccc3c(c2)OCO3)on1` [CBK286883], for which the viability at 28.5 h, 10 µM was determined as 110%. For `CCn1nc(C)c(CN(C)C(=O)C2CC=CCC2C(=O)O)c1C` (stereo not drawn) [CBK286884] the value was 86.1%. Consider `O=C(O)CCc1nc2nc(-c3ccco3)cc(C(F)(F)F)n2n1` [CBK286889], for which the viability at 28.5 h, 10 µM amounted to 86%. Take `CC1Cc2ccccc2N1C(=O)C1C2C=CC(O2)C1C(=O)O` (stereo not drawn) [CBK286891]: the viability at 28.5 h, 10 µM stood at 86.9%.

Take `O=C(O)c1ccc(CSc2nc3ccccc3[nH]2)cc1` [CBK286892]: the viability at 28.5 h, 10 µM amounted to 82%.

Turning to `CCC1CC(C(F)(F)F)n2ncc(C(=O)O)c2N1` (stereo not drawn) [CBK286893], the viability at 28.5 h, 10 µM is 85.2%. Consider `O=C(O)CNC(=O)c1ccccc1NC(=O)c1ccco1` [CBK286894], for which the viability at 28.5 h, 10 µM worked out at 90.2%.

Take `O=C(O)C1CCN(C(=O)CCC(=O)N2CCN(c3ccccc3)CC2)CC1` [CBK286896]: the viability at 28.5 h, 10 µM was 93.9%.

The values above are taken from publication PMC12040169 (PLOS Biology, 2025).
